The results in this text go back to PMC3485629, “Bioactivity comparison of extracts from various parts of common and tartary buckwheats: evaluation of the antioxidant- and angiotensin-converting enzyme inhibitory activities” (Chemistry Central Journal, 2012).

The assay deals with T1, Angiotensin-converting enzymes from porcine kidneys (EC 3.4.15.1) (Sus scrofa, UniProt F1RRW5).
T1 construct: gene ACE; native enzyme from porcine kidney (Sigma), lyophilized
T1 sequence (F1RRW5 34-1309): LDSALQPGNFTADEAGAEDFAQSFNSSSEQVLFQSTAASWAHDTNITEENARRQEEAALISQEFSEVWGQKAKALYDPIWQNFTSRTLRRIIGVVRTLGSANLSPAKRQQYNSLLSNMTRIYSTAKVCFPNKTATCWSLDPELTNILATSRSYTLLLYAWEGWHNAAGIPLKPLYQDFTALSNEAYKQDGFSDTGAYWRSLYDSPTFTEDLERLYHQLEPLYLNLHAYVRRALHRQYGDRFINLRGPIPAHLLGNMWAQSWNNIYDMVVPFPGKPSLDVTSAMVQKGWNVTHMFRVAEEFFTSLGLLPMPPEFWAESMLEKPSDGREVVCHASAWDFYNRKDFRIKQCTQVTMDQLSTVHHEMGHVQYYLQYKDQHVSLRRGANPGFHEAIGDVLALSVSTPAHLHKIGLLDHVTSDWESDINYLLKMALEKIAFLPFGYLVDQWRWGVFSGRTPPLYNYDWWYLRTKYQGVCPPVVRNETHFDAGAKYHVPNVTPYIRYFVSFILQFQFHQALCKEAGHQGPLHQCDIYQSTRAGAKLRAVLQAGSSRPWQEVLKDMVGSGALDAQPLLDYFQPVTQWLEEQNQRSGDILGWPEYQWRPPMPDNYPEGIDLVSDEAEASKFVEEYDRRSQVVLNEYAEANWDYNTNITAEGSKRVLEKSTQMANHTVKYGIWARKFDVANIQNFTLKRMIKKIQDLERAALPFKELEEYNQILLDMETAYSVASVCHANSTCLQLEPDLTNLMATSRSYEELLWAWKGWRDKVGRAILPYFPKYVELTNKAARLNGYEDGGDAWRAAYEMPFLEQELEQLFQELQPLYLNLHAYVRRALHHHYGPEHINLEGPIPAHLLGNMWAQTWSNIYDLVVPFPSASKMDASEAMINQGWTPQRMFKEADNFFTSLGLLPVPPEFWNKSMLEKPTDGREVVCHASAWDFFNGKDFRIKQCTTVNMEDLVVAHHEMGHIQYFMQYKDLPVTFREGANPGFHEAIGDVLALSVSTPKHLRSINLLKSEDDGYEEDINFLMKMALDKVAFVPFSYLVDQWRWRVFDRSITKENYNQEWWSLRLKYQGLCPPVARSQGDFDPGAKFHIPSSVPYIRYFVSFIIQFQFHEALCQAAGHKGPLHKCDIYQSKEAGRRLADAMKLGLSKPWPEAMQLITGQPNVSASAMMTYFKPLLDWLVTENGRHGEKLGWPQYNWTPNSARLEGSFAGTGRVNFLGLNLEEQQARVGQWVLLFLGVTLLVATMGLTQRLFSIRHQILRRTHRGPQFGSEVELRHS
The assay is described as follows: microplate fluorometric assay, OPA detection of His-Leu. It counts as biochemical. As to conditions: read-out: IC50 (μg mL^-1) (converted).

What is called IC50 is the midpoint of a concentration-inhibition curve. Turning to `O=c1c(O)c(-c2ccc(O)c(O)c2)oc2cc(O)cc(O)c12` [quercetin], the IC50 is 129 µM.
